In patent US20220087987A1, “A METHOD FOR TREATING SWI/SNF COMPLEX-DEFICIENT CANCERS COMPRISING GLUTATHIONE (GSH) METABOLIC PATHWAY INHIBITOR” (National Cancer Center, priority 2018, published 2022):

Assays:
[1] = tested on: p53, p21; test: Immunoblot for p53 and p21; type: cell-based, human; details: ARID1A-WT and ARID1A-KO HCT116; 50 μM PRIMA-1, 50 μM APR-246, 10 μM Nutlin3a, 16 hrs
Description: The soluble fractions of whole-cell lysates were mixed with SDS sample buffer. […] The soluble fractions were mixed with SDS sample buffer. Tumor samples derived from xenografts were weighed and washed with PBS. […] The homogenized tumor samples were diluted in an additional 450 μl of NETN420 buffer, incubated for 30 min on ice, and centrifuged at 4° C. for 10 min at 15,000 rpm. The soluble fractions of whole-cell lysates were mixed with SDS sample buffer. Proteins were separated by SDS-PAGE, transferred to PVDF membranes, and immunoblotted with the indicated antibodies. β-actin was used as a loading control. Membranes were blocked overnight at 4° C. or for 1 hr at 25° C. with PVDF Blocking Reagent for Can Get Signal (TOYOBO) and then probed with Can Get Signal Solution 1 (TOYOBO) containing primary antibodies. After washing with TBS containing 0.1% Tween 20, the membranes were incubated with TBS containing 0.1% Tween 20, 1% BSA, and horseradish peroxidase-conjugated anti-mouse or anti-rabbit secondary antibodies, and visualized using Western Lightning ECL Pro (Perkin Elmer). Chemiluminescence signals were measured using LAS-3000 Imaging System (Fujifilm). Signal intensities were measured using Multi Gauge software.

[2] = tested on: ARID1A-WT HCT116 cells; test: Drug library screen, cell viability (CellTiter-Glo); type: cell-based, human; design: key to Cell viability, WT: % viability relative to DMSO solvent-treated cells; details: HCT116 ARID1A-WT; 10 μM for 5 days; relative to cells treated with solvent (DMSO)
Method in brief: (§1)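 ARID1A-WT and ARID1A-KO HCT116 cells screened against the library; viability read after 5 days by CellTiter-Glo luminescence, expressed relative to DMSO-treated cells. Hits: KO viability below 40% with WT viability above 80%.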

[3] = tested on: ARID1A-KO HCT116 cells; test: as above; type: cell-based, human; design: key to Cell viability, KO: % viability relative to DMSO solvent-treated cells; details: HCT116 ARID1A-KO; 10 μM for 5 days; relative to cells treated with solvent (DMSO)
Method in brief: as §1

[4] = tested on: ARID1A-WT and ARID1A-KO HCT116 cells; test: Cell viability and colony formation assays; type: cell-based, human; details: cell viability 5 days, colony formation 10 days
Description: Cell viability was examined by measuring the cellular ATP level using the CellTiter-Glo Luminescent Cell Viability Assay (Promega). To measure cell viability after siRNA-mediated knockdown, cell lines were transfected with siRNAs (25 nM) using Lipofectamine RNAiMAX. After 48 hrs, cells were trypsinized and repeatedly transfected with siRNAs (25 nM) using Lipofectamine RNAiMAX. Cells were trypsinized after a further 48 hrs, counted, and reseeded at the specified density in 96-well plates. To measure cell viability after drug treatment, cells were trypsinized, counted, reseeded at the specified density in 96-well plates, and exposed to the indicated concentrations of drugs. Cell viability was measured using the CellTiter-Glo Luminescent Cell Viability Assay. Luminescence was measured using an Envision Multi-label plate reader (PerkinElmer).
The effect of drug treatment on cancer cell survival was evaluated in a colony formation assay. Cells were trypsinized, counted, reseeded at the specified density in 12-well plates, exposed to the indicated concentrations of drugs for 10-14 days, and fixed for 10 min in 50% (v/v) methanol containing 0.01% (w/v) crystal violet. Images were taken on LAS-3000 Imaging System (Fujifilm) and colonies were counted using Multi Gauge software.

[5] = tested on: ARID1A-deficient OVISE OCCC xenografts; test: Mouse xenograft model, OVISE; type: in vivo, mice; details: PRIMA-1 25 mg/kg
Description: All mouse experiments were approved by the National Cancer Center (NCC) animal Ethical Committee. Cells were counted and re-suspended in a 1:1 mixture of 100 μl culture medium and 100 μl Matrigel (BD Biosciences) on ice. Thereafter, cells (RMG-I: 2×10^6 cells/mouse; TOV21G: 2×10^5 cells/mouse for ARP-246 treatment and 1×10^6 cells/mouse for BSO treatment; OVISE: 2×10^6 cells/mouse; TOV21G-shNT: 2×10^5 cells/mouse; and TOV21G-shGCLC: 2×10^5 cells/mouse) were injected subcutaneously into the flank of 6-week-old female BALB/c-nu/nu mice (CLEA and Charles River). In the subcutaneous model, once the tumors were palpable (about 3-14 days after implantation), mice were randomly divided into two groups. In the drug treatment group, mice were injected intraperitoneally with either PBS or compounds [APR-246 (50 mg/kg), PRIMA-1 (25 mg/kg), or BSO (750 mg/kg)] once daily for 12-14 days. In the doxycycline (Dox) treatment study, TOV21G-shNT cells and TOV21G-shGCLC cells were injected into the flanks of 6-week-old female BALB/c-nu/nu mice. […] Tumor growth was measured every several days using calipers. The volume of implanted tumors was calculated using the formula V=L×W2/2, where V is volume (mm^3), L is the largest diameter (mm), and W is the smallest diameter (mm). […]

[6] = tested on: ARID1A-proficient and ARID1A-deficient cancer cell lines; test: Cell viability and colony formation in cancer cell line panel; type: cell-based, human; details: four ARID1A-proficient and six ARID1A-deficient cell lines; cell viability, colony formation
[7] = tested on: GSH; test: Detection of GSH in cells (GSH/GSSG-Glo, GSH-Glo); type: cell-based, human; details: ARID1A-deficient versus ARID1A-proficient ovarian and other cancer cells
[8] = tested on: ROS; test: Detection of ROS in cells (ROS-Glo); type: cell-based, human; details: ARID1A-deficient versus ARID1A-proficient ovarian and other cancer cells
Description: GSH, ROS and apoptosis were detected using the GSH/GSSG-Glo Assay (Promega) and/or the GSH-Glo Assay (Promega), the ROS-Glo Assay (Promega), and the Caspase-Glo 3/7 Assay, respectively. To measure levels of GSH, ROS and apoptosis after drug treatment, cells were trypsinized, counted, reseeded at the specified density in 96-well plates and exposed to the indicated concentrations of drugs. After 16-48 hrs, luminescence was measured using an Envision Multi-label plate reader (PerkinElmer). To measure levels of GSH and ROS after siRNA-mediated knockdown, cell lines were transfected with siRNAs (25 nM) using Lipofectamine RNAiMAX. After 48 hrs, cells were trypsinized and transfected repeatedly with siRNAs (25 nM) using Lipofectamine RNAiMAX. Cells were trypsinized after a further 48 hrs, counted, and reseeded at the specified density in 96-well plates. After 72-120 hrs, luminescence was measured using an Envision Multi-label plate reader (PerkinElmer). Cell viability was also measured using the CellTiter-Glo Luminescent Cell Viability Assay (Promega). Caspase-3/7, GSH, and ROS levels were normalized against cell viability. The GSH/GSSG ratio was calculated as the GSH-GSSG signal divided by the GSSG/2 signal. Relative signal ratios in treated samples were normalized against untreated samples.

SMILES | expression of p53 and p21 [1] | Cell viability, WT [2] | Cell viability, KO [3] | growth / survival of ARID1A-KO versus ARID1A-WT cells [4] | body weight of mice [5] | growth of xenografts (tumor volume) [5] | sensitivity of ARID1A-deficient versus ARID1A-proficient cancer cells [6] | GSH level in cancer cell lines [7] | ROS level in cancer cell lines [8]
COc1ccc(C2=N[C@@H](c3ccc(Cl)cc3)[C@@H](c3ccc(Cl)cc3)N2C(=O)N2CCNC(=O)C2)c(OC(C)C)c1 [Nutlin3a] | increased the p53 level and upregulated the p53 target p21 | – | – | – | – | – | – | – | –
O=C1C2CCN(CC2)C1(CO)CO [PRIMA-1] | did not markedly affect expression of p53 or p21 | 84.25 | 12.95 | reproducibly suppressed the growth of ARID1A-KO cells but not ARID1A-WT cells | without causing significant weight loss | significantly suppressed the growth | – | – | –
CC(=O)OC[C@H]1O[C@@H]([S-])[C@H](OC(C)=O)[C@@H](OC(C)=O)[C@@H]1OC(C)=O.CCP(CC)CC.[Au+] [auranofin] | – | – | – | – | – | – | more sensitive to the TrxR inhibitor auranofin than ARID1A-proficient cells | more evident in ARID1A-deficient cancer cells | more evident in ARID1A-deficient cancer cells
